Reference: ChEMBL document CHEMBL3507680, “University of Dundee, Gates Library screen for HepG2 cell viability”

Assay: Human HepG2 cell viability assay in 384 well format
Assay type: toxicity, cell-based
Parameters: dose 125 nL, time 70.5 hour; cytotoxicity at 70.5 h: concentration not given beside the values
Conditions: HepG2 cells, read-out: Inhibition

## CCCN1CCN(C(=O)c2cnc(C)nc2)[C@H]2CS(=O)(=O)C[C@H]21
  cytotoxicity at 70.5 h: -0.0232%

## CN(C)CC1CSCCCN1S(=O)(=O)Cc1cccc(F)c1 (stereo unspecified)
  cytotoxicity at 70.5 h: -3.38%

## Cc1nc2cc(O)nn2c(C)c1CCC(=O)N(C)Cc1ccccc1
  cytotoxicity at 70.5 h: 2.7%

## CN(C)c1ccc(C2CC(=O)Nc3c2cnn3Cc2ccco2)cc1 (stereo unspecified)
  cytotoxicity at 70.5 h: -7.08%

## CCc1noc(CN2CCCC2C(=O)OCc2ccccc2)n1 (stereo unspecified)
  cytotoxicity at 70.5 h: -16.5%

## CC(C)OCCN1CCC(Nc2ncccn2)CC1
  cytotoxicity at 70.5 h: 0.193%

## Cc1cc(CN2C[C@H]3CCC[C@@]3(COCc3csc(C)n3)C2)no1
  cytotoxicity at 70.5 h: -9.15%

## Cc1ccc(-c2ccc(=O)n(CC(=O)Nc3nccs3)n2)cc1
  cytotoxicity at 70.5 h: -4.07%

## CCn1ncc2c1NC(=O)C(C#N)C21CCCC1 (stereo unspecified)
  cytotoxicity at 70.5 h: -11.6%

## CCCN(CCC)c1ncc(S(=O)(=O)c2ccc(C)cc2)c(N)n1
  cytotoxicity at 70.5 h: -19.9%

## Cc1ccc(C(=O)N2CCC(n3cc(CO)nn3)CC2)cn1
  cytotoxicity at 70.5 h: 11%

## COC(C)(C)CNC(=O)N1CCC(n2ccc(C(F)(F)F)n2)CC1
  cytotoxicity at 70.5 h: -76.1%

## Cc1nc(CN2CCCN(CC(=O)Nc3ccncc3)CC2)no1
  cytotoxicity at 70.5 h: 5.91%

## COc1ccc(CCC2CCCN(C(=O)c3cnc(N)nc3C)C2)cc1 (stereo unspecified)
  cytotoxicity at 70.5 h: -18.9%

## CN(C)C(=O)N1C[C@@H]2CCCO[C@@H]2[C@H](N(C)Cc2ccco2)C1
  cytotoxicity at 70.5 h: -11.5%

## CCc1[nH]c2c(CNc3nccc(N)n3)cc(F)cc2c1C
  cytotoxicity at 70.5 h: 16.1%

## c1cc(CN2CCCn3nnc(COCC4CC4)c3C2)ccn1
  cytotoxicity at 70.5 h: -15.6%

## CCc1nc(COc2ccc(OCc3cnn(C)c3)cc2)no1
  cytotoxicity at 70.5 h: -2.52%

## Cc1ncsc1CN(C)Cc1cc2c(cc1OC(F)F)OCO2
  cytotoxicity at 70.5 h: 5.16%

## Clc1snnc1CN1CCN(c2nccs2)CC1
  cytotoxicity at 70.5 h: -13.7%

## O=C1C[C@H]2[C@@H](CCN2C(=O)Cc2ccsc2)N1Cc1cccnc1
  cytotoxicity at 70.5 h: -3.76%

## CCNc1cc2c(nn1)CCN(C(=O)Cc1noc3ccccc13)C2
  cytotoxicity at 70.5 h: -12.5%

## COc1ccc(CN2C[C@@H]3OCC(=O)N(CC(N)=O)[C@@H]3C2)cc1
  cytotoxicity at 70.5 h: 2.86%

## NC(=O)N1CCCC(C(=O)NCCOc2ccc(F)cc2F)C1 (stereo unspecified)
  cytotoxicity at 70.5 h: 0.645%

## CCOCCn1nc(C)cc1C(=O)N1CCOCC(CO)C1 (stereo unspecified)
  cytotoxicity at 70.5 h: 12%

## CC(C)Cc1noc(CN2CCN(CCO)CC2)n1
  cytotoxicity at 70.5 h: -4.77%

## CCOc1ncccc1NC(=O)C1CCS(=O)(=O)C1 (stereo unspecified)
  cytotoxicity at 70.5 h: 0.736%

## Cc1ccc(CN2CCOC3(COCCN(CCN(C)C)C3)C2)o1 (stereo unspecified)
  cytotoxicity at 70.5 h: -7.86%

## COc1c(C)cnc(CN2CCOC(Cn3nc(C)nc3C)C2)c1C (stereo unspecified)
  cytotoxicity at 70.5 h: -1.22%

## CCCSc1ncc(C2CC(=O)NCc3nc4ccccn4c32)cn1 (stereo unspecified)
  cytotoxicity at 70.5 h: -3.19%

## CCO[C@H]1C[C@@H](O)C12CCN(S(=O)(=O)c1ccccc1OC)CC2
  cytotoxicity at 70.5 h: -13.9%

## Cc1ccc(CN2CCN(C3CCCC3)CC2CCO)o1 (stereo unspecified)
  cytotoxicity at 70.5 h: 8.76%

## CC(C)c1cc(C2CCN(C(=O)Cn3cnnn3)CC2)[nH]n1
  cytotoxicity at 70.5 h: -6.46%

## CN1CCS(=O)(=O)[C@@H]2CCN(C(=O)CC(C)(C)C)CC[C@@H]21
  cytotoxicity at 70.5 h: -3.84%

## CC(=O)Nc1ncc(S(=O)(=O)Nc2cccc(O)c2)s1
  cytotoxicity at 70.5 h: -13.4%

## NC(=O)C1CN(Cc2c[nH]cn2)CCN(C2CCOCC2)C1 (stereo unspecified)
  cytotoxicity at 70.5 h: -9.19%

## COC[C@@H]1CC[C@H]2[C@H](CCN2C(=O)c2ccncc2F)O1
  cytotoxicity at 70.5 h: -7.3%

## Cn1ccc(C(=O)NCc2ccccc2CN2CCCC2)cc1=O
  cytotoxicity at 70.5 h: 16%

## Cc1cnn(CCNCC(=O)N(C)C(C)c2ccccc2)c1 (stereo unspecified)
  cytotoxicity at 70.5 h: -10.5%

## COc1ccccc1C1CNC(=O)c2nc(-c3cnn(C)c3)[nH]c2C1 (stereo unspecified)
  cytotoxicity at 70.5 h: -7.47%

## Cc1ccc(C(=O)N(C)Cc2nccn2CC(F)(F)F)cn1
  cytotoxicity at 70.5 h: -13.5%

## O=S(=O)(C1CC1)N1C[C@@H]2CN(Cc3cccs3)CCO[C@@H]2C1
  cytotoxicity at 70.5 h: 11.2%

## Cc1cc(N2CCC(O)(CN(C)C(=O)CCCN)C2)c2cnccc2n1 (stereo unspecified)
  cytotoxicity at 70.5 h: -0.861%

## CN(CCCO)Cc1cc(Cl)ccc1OCC(O)CN1CCCCCC1 (stereo unspecified)
  cytotoxicity at 70.5 h: -7.24%

## O=C(O)c1ccccc1-c1ccc(CN2CC(O)C2)cc1
  cytotoxicity at 70.5 h: -11.6%

## Cn1cc(CN2CCCC(CCc3ccc(F)cc3F)C2)cn1 (stereo unspecified)
  cytotoxicity at 70.5 h: -3.89%

## CC(=O)Nc1ccc(CNC2CCCSC2)cc1 (stereo unspecified)
  cytotoxicity at 70.5 h: 23.3%

## Cc1cc(CN2C[C@@H]3CCCO[C@@H]3[C@H](N(C)C(C)C)C2)no1
  cytotoxicity at 70.5 h: -3.76%

## CCn1ccc(-c2cc(C(=O)O)n3ncc(Br)c3n2)n1
  cytotoxicity at 70.5 h: -11.6%

## O=C(Cc1cccnc1)N1CC(Cc2nccc3cc[nH]c23)C1
  cytotoxicity at 70.5 h: 6.89%

## CC(=O)N1CCO[C@@H]2CN(C(=O)c3ccccc3)CC[C@@H]2C1
  cytotoxicity at 70.5 h: 13.4%

## Cc1cc(N2CCN(C(=O)c3cn(C)c4ccccc34)CC2)nc(C)n1
  cytotoxicity at 70.5 h: 20.3%

## CS(=O)(=O)NC(=O)c1nnn(-c2cccc(F)c2)c1C1CC1
  cytotoxicity at 70.5 h: -7.64%

## CN(C)c1ncccc1C(=O)N1CCc2c(ncn2C2CC2)C1
  cytotoxicity at 70.5 h: -4.54%

## O=C(CCn1cncn1)NCC(c1ccco1)N1CCCC1 (stereo unspecified)
  cytotoxicity at 70.5 h: -4.48%

## Cc1noc(CN2CCN(C(=O)N(C)C)CC2)n1
  cytotoxicity at 70.5 h: -11%
